PMC12462173, “Evaluation of in vitro drug-drug interactions of ivermectin and antimalarial compounds” (Malaria Journal, 2025)
Values joined by “and” are separate entries in the source; they are usually repeats but may differ in a detail not shown here. Identical values can stand only once. “Also recorded” adds a separate entry of the source.

Columns and labels:
[1] = test system: pooled human liver microsomes; test: In vitro metabolism of ivermectin in pooled human liver microsomes, alone and co-incubated with an antimalarial (CYP-mediated DDI)
Description: Pooled human liver microsomes (containing 20 mg/mL protein) were thawed on ice, and the reactions were conducted in a 96-well plate (1 mL, Agilent Technologies, Santa Clara, CA, USA). The assay buffer consisted of 0.1 M potassium phosphate buffer (pH 7.4). The premix solutions for each condition were prepared with specific volumes of each component, as outlined in Table S1. The premix solution was prepared by combining ivermectin, antimalarial drug, microsomes, and buffer. Three replicates of each premix solution were prepared, and 475 µL of each premix was transferred into separate wells of the 96-well plate. The plate was incubated at 37 °C for 5 min with gentle shaking (300 rpm). Following incubation, 25 µL of 20 mM NADPH was added to each well, and the solution was mixed thoroughly. The final incubation mixture (500 µL) contained a total microsome concentration of 0.53 mg/mL. To monitor the metabolism of ivermectin, 50 µL from each well was collected at 0, 15, 30, 45, 60, 90, 120, and 150 min and transferred to a new plate containing 200 µL of cold acetonitrile and 100 ng/mL of ivermectin-D2 (internal standard). The collection plate was kept on ice during sampling. After sample collection, the plate was sealed and centrifuged at 1,100 × g for 15 min at 4 °C. A 100 µL aliquot of the clear supernatant was transferred to a new plate for immediate LC–MS analysis.
The LC system consisted of an Agilent 1260 quaternary pump, an Agilent 1260 autosampler (set at 6 °C), and an Agilent 1290 column compartment (set at 40 °C). Five µL of sample was analysed on an Acquity UPLC HSS T3 reversed-phase column (2.1 × 100 mm, 1.8 μm) with a precolumn (2.1 × 5 mm, 1.8 μm) under a linear gradient. The mobile phase consisted of water with 10 mM ammonium acetate and 0.1% formic acid (A) and acetonitrile:water (95:5, v/v) with 10 mM ammonium acetate and 0.1% formic acid (B), at a flow rate of 0.3 mL/min. The gradient started at 75% B, ramped to 90% B over 2 min, held at 90% B for 4 min, and returned to 75% B in 0.1 min, with a 3.9-min re-equilibration. A Sciex TripleTOF 5600 + Q-TOF MS with DuoSpray ESI was used for LC–MS analysis in the positive mode, with source conditions set at 40 psi for ion source gas 1 (GS1) and gas 2 (GS2), 30 psi for curtain gas (CUR), 4,500 V for ion spray voltage floating (ISVF), 350 °C source temperature (TEM), and 120 V declustering potential (DP). Data were acquired from m/z 100–1,000 in TOF–MS scan mode using Analyst TF Software 1.8, and ivermectin quantification (ivermectin peak area/internal standard peak area) was performed with MultiQuant Software (Sciex, Framingham, MA, USA) with a high resolution TOF–MS scan mode.
The metabolism rate of ivermectin was evaluated based on the normalized peak area (%) of ivermectin over a total of 150 min of incubation. […] This normalized value was further adjusted relative to the pre-incubation ivermectin peak area (zero-minute sample) within a sample collection series, resulting in final ivermectin concentrations expressed as relative peak areas. All individual ivermectin concentrations (relative peak area) from triplicate incubations were fitted to an ordinary linear regression, separately conducted for ivermectin alone and ivermectin co-incubated with an antimalarial. The estimated (±95% CI) slope and intercept of the regression analysis was derived using GraphPad Prism v.10.4.2. Additionally, the slopes of the regression analyses were compared statistically between ivermectin alone and when co-incubation with an antimalarial, as an automated output from the regression analysis. Furthermore, the relative difference (%) in in vitro metabolism rate (i.e. difference between regression slopes) for ivermectin alone and when co-incubated with an antimalarial was calculated as shown in Eq. 1.

[2] = reported peak concentration in a patient population associated with standard dosing; cited from earlier work
[3] = enzymes that metabolize the drug; cited from earlier work
[4] = Rhesus macaques; cited from earlier work

Row | Structure (SMILES) | Reported Cmax (ng/ml) [2] | Metabolism pathway [3] | further results
1 | OC(c1cc(C(F)(F)F)nc2c(C(F)(F)F)cccc12)C1CCCCN1 (centres unmarked) [Mefloquine] | 2700 [11] ng/ml | – | DDI effect on the in vitro metabolism rate of ivermectin (class in words) [1]: substantial
2 | Clc1ccc2c(N3CCN(CCCN4CCN(c5ccnc6cc(Cl)ccc56)CC4)CC3)ccnc2c1 [Piperaquine] | 568 [11] ng/ml | Major CYP3A4; Minor CYP2C8 [14] | –
3 | C[C@H]1[C@H](OC(=O)CCC(=O)O)O[C@@H]2O[C@@]3(C)CC[C@H]4[C@H](C)CC[C@@H]1[C@@]24OO3 [Artesunate] | 244 [11] ng/ml | – | –
4 | CC[C@H](C)[C@H]1O[C@]2(CC[C@@H]1C)C[C@@H]1C[C@@H](C/C=C(\C)[C@@H](O[C@H]3C[C@H](OC)[C@@H](O[C@H]4C[C@H](OC)[C@@H](O)[C@H](C)O4)[C@H](C)O3)[C@@H](C)/C=C/C=C3\CO[C@@H]4[C@H](O)C(C)=C[C@@H](C(=O)O1)[C@]34O)O2 [Ivermectin] | 119 [3] ng/ml | primarily metabolized by CYP3A4 and to a lesser extent CYP3A5 and CYP2C8; also recorded: Major CYP3A4; Minor CYP3A5, CYP2C8 [31, 32] | Intercept (95%CI) of linear regression of ivermectin relative peak area (%), ivermectin alone ([1]; ivermectin 1 µM alone, control run paired with the antimalarial of the same table line): 97.6 (95.4-99.9) and 96.1 (94.1-98.1) and 98.0 (96.7-99.2) and 97.7 (96.2-99.2) and 98.0 (96.6-99.4) and 100.1 (98.5-101.7) and 97.8 (95.9-99.8)
5 | CCc1nc(N)nc(N)c1-c1ccc(Cl)cc1 [Pyrimethamine] | 280 [11] ng/ml | CYP1B1, CYP2C9 [23] | DDI effect on the in vitro metabolism rate of ivermectin (class in words) [1]: little impact; Intercept (95%CI) of linear regression of ivermectin relative peak area (%), combination ([1]; human, pH 7.4): 96.7 (95.0-98.3); Slope (95%CI) of linear regression of ivermectin relative peak area (%) over time, combination ([1]; human, pH 7.4): -0.21 (-0.24 to -0.19)
6 | CCN(CC)CCCC(C)Nc1ccnc2cc(Cl)ccc12 (centres unmarked) [Chloroquine] | 1430 [11] ng/ml | – | DDI effect on the in vitro metabolism rate of ivermectin (class in words) [1]: substantial; Exposure to ivermectin on co-administration [4]: increased exposure to ivermectin
7 | C[C@H]1[C@@H](O)O[C@@H]2O[C@@]3(C)CC[C@H]4[C@H](C)CC[C@@H]1[C@@]24OO3 [Dihydroartemisinin] | 421 [3] ng/ml | Glucuronidation by UGT1A9 and UGT2B7 [29] | –
8 | [H]/N=C(\N/C(=N/[H])Nc1ccc(Cl)cc1)NC(C)C [Proguanil] | 750 [11] ng/ml | CYP2C19 [18] | –
9 | CCCCN(CCCC)CC(O)c1cc(Cl)cc2c1-c1ccc(Cl)cc1/C2=C/c1ccc(Cl)cc1 (centres unmarked) [Lumefantrine] | 25,700 [11] ng/ml | CYP3A4 [19, 20] | –
10 | O=C1C(O)=C([C@H]2CC[C@H](c3ccc(Cl)cc3)CC2)C(=O)c2ccccc21 [Atovaquone] | 13,300 [11] ng/ml | Major CYP3A4; Minor CYP2C9 [21, 22] | –
11 | COc1ncnc(NS(=O)(=O)c2ccc(N)cc2)c1OC [Sulfadoxine] | 130,000 [11] ng/ml | Acetylation by N-Acetyltransferase 2 [25] | –
12 | CCN(CC)Cc1cc(Nc2ccnc3cc(Cl)ccc23)ccc1O [Amodiaquine] | – | Major CYP2C8; Minor CYP1A1, CYP1B1 [23, 28] | –
13 | COc1cc(C)c2c(Oc3cccc(C(F)(F)F)c3)c(OC)cc(NC(C)CCCN)c2n1 (centres unmarked) [Tafenoquine] | 300 [13] ng/ml | CYP2D6 [27] | –
14 | CO[C@H]1O[C@@H]2O[C@@]3(C)CC[C@H]4[C@H](C)CC[C@@H]([C@H]1C)[C@@]24OO3 [Artemether] | 186 [11] ng/ml | Major CYP2B6; Minor CYP3A4 [19, 20, 26] | –
15 | COc1cc(NC(C)CCCN)c2ncccc2c1 (centres unmarked) [Primaquine] | 167 [11] ng/ml | Major CYP2D6; Minor CYP1A2 [23, 30] | –
16 | COc1ccc2nc3cc(Cl)ccc3c(Nc3cc(CN4CCCC4)c(O)c(CN4CCCC4)c3)c2n1 [Pyronaridine] | 571 [12] ng/ml | CYP1A2, CYP2D6, CYP3A4 [24] | –
